Source: patent US8796244B2, “Imidazopyridine derivatives as inhibitors of receptor tyrosine kinases” (Astex Therapeutics Ltd, priority 2008, dated 2014)
Where a name gives a salt, the structure may show the parent alone. Read-outs that look alike come from different tables or passages of the source.

Key:
Ba/F3-TEL-FGFR3 cells = experiment: Ba/F3-TEL-FGFR3 cell proliferation assay (Alamar Blue); assay type: cell-based
FGFR3 = FGFR3 (Homo sapiens (Human), UniProt P22607); experiment: FGFR3 in vitro kinase inhibitory activity assay (TRF); details: 3 h, read-out: FGFR3 % I
[1] = test system: LP-1 cell line (FGF-1/Heparin induced pERK); experiment: Cell-based pERK ELISA, LP-1 cells; details: Homo sapiens, LP-1, read-out: LP-1 pERK ELISA (μM)
[2] = test system: parental wild-type Ba/F3 cells; experiment: Ba/F3 (WT) cell proliferation assay (Alamar Blue); assay type: cell-based; details: Mus musculus; for inhibition at 10 µM: read-out: BaF3 WT prolif, % inhibition
VEGFR2 = VEGFR2 (Homo sapiens (Human), UniProt P35968); experiment: VEGFR2 in vitro kinase inhibitory activity assay (TRF, Flt3 substrate); assay type: biochemical
[3] = 72 h, read-out: BaF3-TEL-FGFR3 prolif (μM)
[4] = BaF3, 72 h, read-out: BaF3 WT prolif (μM)
[5] = 72 hours, Alamar Blue, read-out: BaF3-TEL-FGFR3 prolif
[6] = BaF3, 72 hours, Alamar Blue, read-out: BaF3 WT prolif
[7] = BaF3, read-out: BaF3 WT prolif, % inhibition

Chain of FGFR3 (P22607 23-806): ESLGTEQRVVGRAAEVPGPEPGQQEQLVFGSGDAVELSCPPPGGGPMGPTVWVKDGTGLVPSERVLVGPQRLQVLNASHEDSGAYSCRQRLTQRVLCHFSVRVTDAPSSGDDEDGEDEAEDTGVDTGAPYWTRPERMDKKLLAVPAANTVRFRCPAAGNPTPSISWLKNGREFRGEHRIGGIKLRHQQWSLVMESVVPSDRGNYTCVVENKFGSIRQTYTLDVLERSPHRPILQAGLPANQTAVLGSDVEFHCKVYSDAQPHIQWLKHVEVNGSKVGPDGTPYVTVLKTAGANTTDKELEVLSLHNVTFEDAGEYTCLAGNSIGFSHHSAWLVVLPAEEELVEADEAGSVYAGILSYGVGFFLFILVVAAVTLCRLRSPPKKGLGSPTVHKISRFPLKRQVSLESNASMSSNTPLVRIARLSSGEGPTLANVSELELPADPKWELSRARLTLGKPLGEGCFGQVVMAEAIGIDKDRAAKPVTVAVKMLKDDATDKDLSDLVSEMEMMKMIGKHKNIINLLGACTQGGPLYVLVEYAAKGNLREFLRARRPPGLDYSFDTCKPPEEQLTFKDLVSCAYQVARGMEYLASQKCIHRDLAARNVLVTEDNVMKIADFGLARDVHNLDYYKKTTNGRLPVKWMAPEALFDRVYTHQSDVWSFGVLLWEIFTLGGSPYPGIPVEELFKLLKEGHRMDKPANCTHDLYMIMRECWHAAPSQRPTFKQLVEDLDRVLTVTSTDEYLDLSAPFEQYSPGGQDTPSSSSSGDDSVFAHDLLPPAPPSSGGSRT
Chain of VEGFR2 (P35968 20-1356): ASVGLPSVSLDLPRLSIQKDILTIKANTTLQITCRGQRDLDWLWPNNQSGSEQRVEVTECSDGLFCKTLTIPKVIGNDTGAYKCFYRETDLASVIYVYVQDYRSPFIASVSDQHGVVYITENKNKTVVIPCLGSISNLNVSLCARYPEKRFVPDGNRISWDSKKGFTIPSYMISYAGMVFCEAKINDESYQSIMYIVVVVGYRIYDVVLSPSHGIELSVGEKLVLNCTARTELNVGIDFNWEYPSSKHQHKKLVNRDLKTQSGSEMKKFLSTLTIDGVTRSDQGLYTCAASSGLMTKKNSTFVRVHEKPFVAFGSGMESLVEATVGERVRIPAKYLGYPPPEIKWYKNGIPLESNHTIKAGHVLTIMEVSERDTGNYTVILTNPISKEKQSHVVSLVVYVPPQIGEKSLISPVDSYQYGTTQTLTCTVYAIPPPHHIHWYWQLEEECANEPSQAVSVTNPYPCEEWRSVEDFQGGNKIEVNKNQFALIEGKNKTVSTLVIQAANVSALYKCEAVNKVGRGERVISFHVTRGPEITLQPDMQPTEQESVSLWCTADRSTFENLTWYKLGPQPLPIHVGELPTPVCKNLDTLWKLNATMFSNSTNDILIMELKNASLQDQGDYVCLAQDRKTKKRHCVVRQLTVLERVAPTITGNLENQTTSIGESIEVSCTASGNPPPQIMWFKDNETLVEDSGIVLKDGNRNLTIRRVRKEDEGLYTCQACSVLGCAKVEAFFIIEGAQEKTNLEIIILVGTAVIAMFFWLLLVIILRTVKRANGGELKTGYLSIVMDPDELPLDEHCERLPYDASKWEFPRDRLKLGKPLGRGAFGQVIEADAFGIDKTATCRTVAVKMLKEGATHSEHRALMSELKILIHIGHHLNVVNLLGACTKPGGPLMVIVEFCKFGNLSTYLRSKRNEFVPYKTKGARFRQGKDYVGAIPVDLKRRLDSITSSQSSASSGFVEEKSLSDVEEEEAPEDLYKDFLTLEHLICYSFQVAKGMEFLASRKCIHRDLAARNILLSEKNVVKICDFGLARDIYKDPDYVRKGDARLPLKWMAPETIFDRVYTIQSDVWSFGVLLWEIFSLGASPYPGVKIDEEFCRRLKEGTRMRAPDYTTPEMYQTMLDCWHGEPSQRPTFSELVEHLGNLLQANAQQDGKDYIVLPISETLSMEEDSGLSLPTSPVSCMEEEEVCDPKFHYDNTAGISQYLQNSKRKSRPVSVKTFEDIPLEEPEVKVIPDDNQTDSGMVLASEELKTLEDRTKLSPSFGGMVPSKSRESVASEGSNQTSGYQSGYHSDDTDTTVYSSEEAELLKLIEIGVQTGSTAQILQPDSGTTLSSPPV

SMILES	IC50 [1] [µM]	IC50 (Ba/F3-TEL-FGFR3 cells; [5]) [µM]	IC50 [2, 6] [µM]	also measured
CC(=O)N1CCC(n2cc(-c3ccn4c(-c5cccc(NC(=O)NCC(F)(F)F)c5)cnc4c3)cn2)CC1 [Example 63, 1-(3-{7-[1-(1-Acetyl-piperidin-4-yl)-1H-pyrazol-4-yl]-imidazo[1,2-a]pyridin-3-yl}-phenyl)-3-(2,2,2-trifluoro-ethyl)-urea formate]	0.05			IC50 (Ba/F3-TEL-FGFR3 cells; [3]): 0.092 µM; inhibition at 0.0003 µM (FGFR3): 50.5%; IC50 [2, 4]: 1.4 µM
O=C(NCC(F)(F)F)Nc1cccc(-c2cnc3cc(-c4ccc(NC5CCOCC5)nn4)ccn23)c1 [Example 66, 1-(3-{7-[6-(Tetrahydro-pyran-4-ylamino)-pyridazin-3-yl]-imidazo[1,2-a]pyridin-3-yl}-phenyl)-3-(2,2,2-trifluoro-ethyl)-urea bis-hydrochloride]	0.069			IC50 (Ba/F3-TEL-FGFR3 cells; [3]): 0.046 µM; inhibition at 0.0003 µM (FGFR3): 43%; IC50 [2, 4]: 1.9 µM
CCN(CC)CCNC(=O)C(C)(C)n1cc(-c2ccn3c(-c4cccc(NC(=O)NCC(F)(F)F)c4)cnc3c2)cn1 [Example 68, N-(2-Diethylamino-ethyl)-2-[4-(3 {3-[3-(2,2,2-trifluoro-ethyl)-ureido]-phenyl}-imidazo[1,2-a]pyridin-7-yl)-pyrazol-1-yl]-isobutyramide]	0.53	1.5		inhibition at 10 µM ([2]; BaF3): 36%
CNC(=O)C(C)(C)n1cc(-c2ccn3c(-c4cccc(NC(=O)NCC(F)(F)F)c4)cnc3c2)cn1 [Example 69, N-Methyl-2-[4-(3-{3-[3-(2,2,2-trifluoro-ethyl)-ureido]-phenyl}-imidazo[1,2-a]pyridin-7-yl)-pyrazol-1-yl]-isobutyramide]	0.096	0.26	4.6	
CC(C)(C(N)=O)n1cc(-c2ccn3c(-c4cccc(NC(=O)NCC(F)(F)F)c4)cnc3c2)cn1 [Example 72, 2-[4-(3-{3-[3-(2,2,2-Trifluoro-ethyl)-ureido]-phenyl}-imidazo[1,2-a]pyridin-7-yl)-pyrazol-1-yl]-isobutyramide]	0.3	0.76		inhibition at 10 µM ([2]; BaF3): 32%
CC(C)(C(=O)N1CCC1)n1cc(-c2ccn3c(-c4cccc(NC(=O)NCC(F)(F)F)c4)cnc3c2)cn1 [Example 73, 1-(3-{7-[1-(2-Azetidin-1-yl-1,1-dimethyl-2-oxo-ethyl)-1H-pyrazol-4-yl]-imidazo[1,2-a]pyridin-3-yl}-phenyl)-3-(2,2,2-trifluoro-ethyl)-urea]	0.12	0.13	3.7	inhibition at 0.001 µM (FGFR3): 60%
CS(=O)(=O)N1CCC(n2cc(-c3ccn4c(-c5cccc(NC(=O)NCC(F)(F)F)c5)cnc4c3)cn2)CC1 [Example 74, 1-(3-{7-[1-(1-Methanesulfonyl-piperidin-4-yl)-1H-pyrazol-4-yl]-imidazo [1,2-a]pyridin-3-yl}-phenyl)-3-(2,2,2-trifluoro-ethyl)-urea]	0.018	0.096	0.82	inhibition at 0.0003 µM (FGFR3): 51.5%
Cc1noc(C)c1C#Cc1ccn2c(-c3cccc(NC(=O)NCC(F)(F)F)c3)cnc2c1 [Example 112, 1-{3-[7-(3,5-Dimethyl-isoxazol-4-ylethynyl)-imidazo[1,2-a]pyridin-3-yl]-phenyl}-3-(2,2,2-trifluoro-ethyl)-urea trifluoroacetate]				inhibition at 0.3 µM (FGFR3): 49%
CNc1cc(-c2ccn3c(-c4cccc(NC(=O)NCC(F)(F)F)c4)cnc3c2)ncn1 [Example 195]		0.076	5	inhibition at 0.00097 µM (FGFR3): 66%
O=C(NCC(F)(F)F)Nc1cccc(-c2cnc3cc(-c4ccc(O)cn4)ccn23)c1 [Example 202]		0.26		inhibition at 0.001 µM (FGFR3): 46%; inhibition at 1 µM [2, 7]: 21%
O=C(NCC(F)(F)F)Nc1cccc(-c2cnc3cc(-c4ccnc(-n5ccnc5)n4)ccn23)c1 [Example 215]		8.8	10	inhibition at 0.1 µM (FGFR3): 39%; IC50 (VEGFR2; […]): > 10000 nM
CNC(=O)c1ccc(-c2ccn3c(-c4cccc(NC(=O)NCC(F)(F)F)c4)cnc3c2)nc1 [Example 224]		0.033		inhibition at 0.001 µM (FGFR3): 61%; inhibition at 3 µM [2, 7]: 16%
O=C(NCC(F)(F)F)Nc1cccc(-c2cnc3cc(-c4ccc(C(F)(F)F)nn4)ccn23)c1 [Example 229]		0.32	5.5	inhibition at 0.03 µM (FGFR3): 67%; inhibition at 0.3 µM (VEGFR2; 1 h, at 0.3 μM, read-out: VEGFR2 % I): 59%
CCNC(=O)Nc1cccc(-c2cnc3cc(-c4ncc(OC)cn4)ccn23)c1 [Example 230]		0.09	0.16	inhibition at 0.003 µM (FGFR3): 49%
O=C(NCC(F)(F)F)Nc1cccc(-c2cnc3cc(-c4cnc(C(F)(F)F)nc4)ccn23)c1 [Example 232]		0.045	0.6	inhibition at 0.001 µM (FGFR3): 45%
CCNC(=O)Nc1cccc(-c2cnc3cc(-c4nnc(C(F)(F)F)s4)ccn23)c1 [Example 236]				inhibition at 0.31 µM (FGFR3): 46%
